{
  "source": "ChEMBL document CHEMBL1201862",
  "about": "“PubChem BioAssay data set” (2004)",
  "key": {"[1]": {"test_system": "Saccharomyces cerevisiae", "assay": "S. cerevisiae Caspase-1/ASC signal blockers IC50, NALP1 inhibitor project selectivity test (AID 488863)", "assay_type": "functional, organism-based"}, "[2]": {"target": "T1, Protein RecA (Mycobacterium tuberculosis, UniProt P9WHJ3)", "T1 sequence (P9WHJ3 whole entry)": "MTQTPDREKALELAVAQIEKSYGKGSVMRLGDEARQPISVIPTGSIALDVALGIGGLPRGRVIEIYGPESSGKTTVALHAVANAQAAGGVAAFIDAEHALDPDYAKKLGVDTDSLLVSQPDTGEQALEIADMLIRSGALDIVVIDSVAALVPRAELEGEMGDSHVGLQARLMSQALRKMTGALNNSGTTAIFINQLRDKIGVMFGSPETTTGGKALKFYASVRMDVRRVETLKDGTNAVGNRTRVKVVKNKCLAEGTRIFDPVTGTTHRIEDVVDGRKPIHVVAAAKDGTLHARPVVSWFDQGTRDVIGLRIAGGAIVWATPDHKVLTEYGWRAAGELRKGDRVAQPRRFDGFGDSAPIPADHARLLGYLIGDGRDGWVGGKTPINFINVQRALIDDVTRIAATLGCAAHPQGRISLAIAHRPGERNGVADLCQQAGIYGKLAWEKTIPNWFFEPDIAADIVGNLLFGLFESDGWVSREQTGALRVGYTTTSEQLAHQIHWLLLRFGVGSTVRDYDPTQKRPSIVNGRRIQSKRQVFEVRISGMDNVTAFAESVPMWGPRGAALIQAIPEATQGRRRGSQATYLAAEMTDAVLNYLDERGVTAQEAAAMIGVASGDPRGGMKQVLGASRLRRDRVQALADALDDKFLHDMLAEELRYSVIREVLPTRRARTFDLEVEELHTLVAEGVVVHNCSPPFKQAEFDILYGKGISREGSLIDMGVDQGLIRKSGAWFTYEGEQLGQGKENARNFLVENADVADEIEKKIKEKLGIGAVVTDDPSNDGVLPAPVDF", "assay": "Fluorescence Cell-Free Homogeneous Dose Retest to Identify Inhibitors of RecA-Intein Splicing Activity. [Related pubchem assays (depositor defined):AID2097, AID2223, AID489010, AID492950]", "assay_type": "functional"}, "[3]": {"assay": "Mcl1-dependent cancer cell viability – HMC-1-8 cells, luminescence, dry powder, selectivity assay for A1 inhibitor project, dose response (AID 504415)", "assay_type": "functional, cell-based", "settings": "Homo sapiens"}, "[4]": {"target": "T2, Replicative DNA helicase DnaB (Mycobacterium tuberculosis, UniProt P9WMR3)", "T2 sequence (P9WMR3 whole entry)": "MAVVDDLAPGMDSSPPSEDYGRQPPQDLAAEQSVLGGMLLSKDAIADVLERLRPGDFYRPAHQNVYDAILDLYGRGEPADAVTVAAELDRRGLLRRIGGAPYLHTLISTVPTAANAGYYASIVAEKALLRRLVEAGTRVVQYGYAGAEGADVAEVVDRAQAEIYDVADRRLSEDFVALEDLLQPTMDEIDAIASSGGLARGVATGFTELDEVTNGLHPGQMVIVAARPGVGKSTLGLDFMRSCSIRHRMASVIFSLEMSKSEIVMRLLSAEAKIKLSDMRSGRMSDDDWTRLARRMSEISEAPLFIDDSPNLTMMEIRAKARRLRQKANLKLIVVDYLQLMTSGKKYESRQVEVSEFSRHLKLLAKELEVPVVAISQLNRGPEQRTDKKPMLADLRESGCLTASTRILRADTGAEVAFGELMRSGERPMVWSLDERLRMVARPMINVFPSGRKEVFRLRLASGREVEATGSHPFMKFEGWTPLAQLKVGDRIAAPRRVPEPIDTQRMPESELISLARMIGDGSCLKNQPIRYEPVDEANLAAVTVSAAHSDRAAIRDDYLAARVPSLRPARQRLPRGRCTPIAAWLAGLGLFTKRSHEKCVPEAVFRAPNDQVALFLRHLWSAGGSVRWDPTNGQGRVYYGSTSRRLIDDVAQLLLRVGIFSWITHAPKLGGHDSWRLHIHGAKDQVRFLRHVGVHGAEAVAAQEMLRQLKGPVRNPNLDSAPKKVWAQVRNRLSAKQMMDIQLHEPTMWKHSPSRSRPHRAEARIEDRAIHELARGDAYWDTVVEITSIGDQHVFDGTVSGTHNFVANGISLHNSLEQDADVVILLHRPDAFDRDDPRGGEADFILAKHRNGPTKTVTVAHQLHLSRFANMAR", "assay": "DnaB intein splicing inhibitors, dose response, biochemical, cell-free fluorescence (AID 449749)", "assay_type": "functional"}, "[5]": {"target": "T3, NACHT, LRR and PYD domains-containing protein 1 (Homo sapiens, UniProt Q9C000)", "T3 sequence (Q9C000 whole entry)": "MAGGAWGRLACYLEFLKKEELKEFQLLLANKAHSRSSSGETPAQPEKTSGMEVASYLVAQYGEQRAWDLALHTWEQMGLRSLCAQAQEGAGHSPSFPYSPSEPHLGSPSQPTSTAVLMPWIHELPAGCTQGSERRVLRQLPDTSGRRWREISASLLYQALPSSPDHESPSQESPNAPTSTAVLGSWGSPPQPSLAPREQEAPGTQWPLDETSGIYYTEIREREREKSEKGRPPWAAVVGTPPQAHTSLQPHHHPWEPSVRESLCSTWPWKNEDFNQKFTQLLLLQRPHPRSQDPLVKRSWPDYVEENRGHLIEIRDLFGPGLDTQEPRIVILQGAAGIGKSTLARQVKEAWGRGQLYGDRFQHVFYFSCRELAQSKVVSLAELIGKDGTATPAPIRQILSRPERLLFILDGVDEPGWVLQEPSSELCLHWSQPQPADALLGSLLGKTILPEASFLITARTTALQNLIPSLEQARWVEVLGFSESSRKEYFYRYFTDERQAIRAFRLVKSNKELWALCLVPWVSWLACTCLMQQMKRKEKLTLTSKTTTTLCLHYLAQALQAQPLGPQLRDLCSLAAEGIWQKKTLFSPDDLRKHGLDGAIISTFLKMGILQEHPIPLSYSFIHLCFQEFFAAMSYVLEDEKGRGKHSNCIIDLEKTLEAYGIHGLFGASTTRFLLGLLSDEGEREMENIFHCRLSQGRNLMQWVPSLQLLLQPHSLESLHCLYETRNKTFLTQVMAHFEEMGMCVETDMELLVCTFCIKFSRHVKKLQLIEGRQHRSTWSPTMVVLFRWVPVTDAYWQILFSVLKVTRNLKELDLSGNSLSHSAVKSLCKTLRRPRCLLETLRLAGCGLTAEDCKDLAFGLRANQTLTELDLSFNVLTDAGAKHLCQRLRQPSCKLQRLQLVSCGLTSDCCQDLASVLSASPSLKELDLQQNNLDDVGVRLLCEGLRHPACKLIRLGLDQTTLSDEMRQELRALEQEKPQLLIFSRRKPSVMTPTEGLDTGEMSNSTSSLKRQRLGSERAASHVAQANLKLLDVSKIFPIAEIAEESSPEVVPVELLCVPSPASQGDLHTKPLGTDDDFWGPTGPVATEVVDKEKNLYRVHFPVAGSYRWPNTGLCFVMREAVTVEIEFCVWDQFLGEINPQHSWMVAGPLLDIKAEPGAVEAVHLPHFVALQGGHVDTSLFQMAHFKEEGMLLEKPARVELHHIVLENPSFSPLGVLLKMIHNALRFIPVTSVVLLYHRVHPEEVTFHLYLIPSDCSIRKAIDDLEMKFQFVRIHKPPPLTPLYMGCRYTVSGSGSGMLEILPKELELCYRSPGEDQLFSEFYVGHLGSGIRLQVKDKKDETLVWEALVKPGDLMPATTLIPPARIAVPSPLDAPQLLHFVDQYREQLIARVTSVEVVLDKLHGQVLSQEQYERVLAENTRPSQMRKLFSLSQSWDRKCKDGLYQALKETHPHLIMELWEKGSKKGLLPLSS", "assay": "NALP1 inhibitors in yeast, dose response, luminescent (AID 488860)", "assay_type": "functional"}, "[6]": {"target": "Protein disulfide-isomerase (Homo sapiens, UniProt P07237)", "sequence (P07237 whole entry)": "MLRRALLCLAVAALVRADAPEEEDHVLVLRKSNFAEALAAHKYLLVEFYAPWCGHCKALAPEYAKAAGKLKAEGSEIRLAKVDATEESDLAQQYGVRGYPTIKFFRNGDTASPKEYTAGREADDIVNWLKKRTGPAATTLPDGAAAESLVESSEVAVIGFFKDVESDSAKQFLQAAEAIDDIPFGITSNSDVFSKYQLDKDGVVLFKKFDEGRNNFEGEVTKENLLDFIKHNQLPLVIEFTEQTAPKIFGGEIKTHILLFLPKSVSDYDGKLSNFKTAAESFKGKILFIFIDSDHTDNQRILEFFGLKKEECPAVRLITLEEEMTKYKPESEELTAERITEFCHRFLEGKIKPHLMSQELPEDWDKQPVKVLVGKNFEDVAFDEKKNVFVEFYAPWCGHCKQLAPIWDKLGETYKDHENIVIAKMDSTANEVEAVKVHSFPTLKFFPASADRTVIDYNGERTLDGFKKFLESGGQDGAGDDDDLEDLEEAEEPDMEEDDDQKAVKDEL", "assay": "inhibition of PDI-driven insulin aggregation – biochemical, turbidity, absorbance, cherry-picked samples, dose response (AID 602350)", "assay_type": "functional"}, "[7]": {"target": "DNA dC->dU-editing enzyme APOBEC-3G (Homo sapiens, UniProt Q9HC16)", "sequence (Q9HC16 whole entry)": "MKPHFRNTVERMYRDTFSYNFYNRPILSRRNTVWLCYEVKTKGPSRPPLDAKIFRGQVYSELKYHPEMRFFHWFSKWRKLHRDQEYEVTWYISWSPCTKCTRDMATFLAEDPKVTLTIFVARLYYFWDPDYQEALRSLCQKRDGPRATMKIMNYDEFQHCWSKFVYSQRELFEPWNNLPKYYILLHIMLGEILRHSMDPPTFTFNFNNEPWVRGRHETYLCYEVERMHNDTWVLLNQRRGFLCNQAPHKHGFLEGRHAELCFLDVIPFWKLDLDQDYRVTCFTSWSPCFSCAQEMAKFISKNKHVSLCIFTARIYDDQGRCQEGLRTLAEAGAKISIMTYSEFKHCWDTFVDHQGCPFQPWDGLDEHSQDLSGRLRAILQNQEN", "assay": "inhibition of APOBEC3G ssDNA deamination – biochemical, fluorescence, single-stranded DNA substrate, SAR follow-up (AID 602136)", "assay_type": "functional", "settings": "read-out: IC50_Mean"}, "[8]": {"target": "DNA dC->dU-editing enzyme APOBEC-3A (Homo sapiens, UniProt P31941)", "sequence (P31941 whole entry)": "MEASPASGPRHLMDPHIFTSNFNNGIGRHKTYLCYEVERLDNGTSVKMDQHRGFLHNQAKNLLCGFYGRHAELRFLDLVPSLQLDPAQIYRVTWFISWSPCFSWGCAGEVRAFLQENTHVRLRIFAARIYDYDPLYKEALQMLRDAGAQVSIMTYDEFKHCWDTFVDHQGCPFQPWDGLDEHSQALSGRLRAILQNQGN", "assay": "SAR analysis of small molecule inhibitors of APOBEC3A DNA Deaminase via a fluorescence-based single-stranded DNA deaminase assay.", "assay_type": "functional", "settings": "read-out: IC50_Mean"}, "[9]": {"target": "Sphingosine 1-phosphate receptor 2 (Homo sapiens, UniProt O95136)", "sequence (O95136 whole entry)": "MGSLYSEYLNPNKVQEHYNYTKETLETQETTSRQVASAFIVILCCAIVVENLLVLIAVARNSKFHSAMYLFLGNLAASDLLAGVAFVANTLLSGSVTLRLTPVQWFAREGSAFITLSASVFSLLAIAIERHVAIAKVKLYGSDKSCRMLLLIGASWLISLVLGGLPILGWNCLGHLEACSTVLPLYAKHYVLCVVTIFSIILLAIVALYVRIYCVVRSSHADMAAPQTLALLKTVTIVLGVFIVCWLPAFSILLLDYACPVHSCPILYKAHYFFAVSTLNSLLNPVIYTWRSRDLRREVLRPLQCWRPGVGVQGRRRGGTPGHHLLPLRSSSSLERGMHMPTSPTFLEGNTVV", "assay": "Late-stage fluorescence-based dose-response cell-based counterscreen assay to identify agonists of the Sphingosine 1-Phosphate Receptor 3 (S1P3): Sphingosine 1-Phosphate Receptor 2 (S1P2) agonist assay.", "assay_type": "functional"}, "[10]": {"target": "T4, Sphingosine 1-phosphate receptor 4 (Homo sapiens, UniProt O95977)", "T4 sequence (O95977 whole entry)": "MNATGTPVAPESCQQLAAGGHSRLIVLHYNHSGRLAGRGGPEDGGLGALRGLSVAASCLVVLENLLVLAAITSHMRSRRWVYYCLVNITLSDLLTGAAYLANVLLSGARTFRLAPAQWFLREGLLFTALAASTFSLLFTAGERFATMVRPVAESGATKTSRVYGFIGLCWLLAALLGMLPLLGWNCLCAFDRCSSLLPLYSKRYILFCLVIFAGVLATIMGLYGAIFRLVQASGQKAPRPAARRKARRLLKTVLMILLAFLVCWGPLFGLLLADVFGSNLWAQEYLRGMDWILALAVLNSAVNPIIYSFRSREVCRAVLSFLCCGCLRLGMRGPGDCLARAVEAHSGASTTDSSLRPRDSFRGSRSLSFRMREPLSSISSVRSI", "assay": "Late-stage fluorescence-based dose-response cell-based counterscreen assay to identify agonists of the Sphingosine 1-Phosphate Receptor 3 (S1P3): Sphingosine 1-Phosphate Receptor 4 (S1P4) agonist assay.", "assay_type": "functional"}, "[11]": {"target": "Cyclin-dependent kinase 19 (Homo sapiens, UniProt Q9BWU1)", "sequence (Q9BWU1 whole entry)": "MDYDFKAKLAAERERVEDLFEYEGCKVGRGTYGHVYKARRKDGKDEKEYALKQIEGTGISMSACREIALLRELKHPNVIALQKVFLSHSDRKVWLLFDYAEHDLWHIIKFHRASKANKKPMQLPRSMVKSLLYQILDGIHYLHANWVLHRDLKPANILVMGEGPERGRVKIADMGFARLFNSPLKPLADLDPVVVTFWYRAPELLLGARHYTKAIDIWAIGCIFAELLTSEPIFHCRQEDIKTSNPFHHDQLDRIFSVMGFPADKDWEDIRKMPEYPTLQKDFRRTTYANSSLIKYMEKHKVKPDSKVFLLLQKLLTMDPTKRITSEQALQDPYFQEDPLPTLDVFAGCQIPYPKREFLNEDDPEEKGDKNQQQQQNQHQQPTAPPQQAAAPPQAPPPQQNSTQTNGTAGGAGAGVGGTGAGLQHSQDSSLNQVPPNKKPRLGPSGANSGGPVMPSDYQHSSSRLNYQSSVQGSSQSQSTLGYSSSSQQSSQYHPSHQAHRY", "assay": "Navigating the Kinome. Panel member name: CDC2L6", "assay_type": "functional"}, "[12]": {"target": "Cell division cycle 7-related protein kinase (Homo sapiens, UniProt O00311)", "sequence (O00311 whole entry)": "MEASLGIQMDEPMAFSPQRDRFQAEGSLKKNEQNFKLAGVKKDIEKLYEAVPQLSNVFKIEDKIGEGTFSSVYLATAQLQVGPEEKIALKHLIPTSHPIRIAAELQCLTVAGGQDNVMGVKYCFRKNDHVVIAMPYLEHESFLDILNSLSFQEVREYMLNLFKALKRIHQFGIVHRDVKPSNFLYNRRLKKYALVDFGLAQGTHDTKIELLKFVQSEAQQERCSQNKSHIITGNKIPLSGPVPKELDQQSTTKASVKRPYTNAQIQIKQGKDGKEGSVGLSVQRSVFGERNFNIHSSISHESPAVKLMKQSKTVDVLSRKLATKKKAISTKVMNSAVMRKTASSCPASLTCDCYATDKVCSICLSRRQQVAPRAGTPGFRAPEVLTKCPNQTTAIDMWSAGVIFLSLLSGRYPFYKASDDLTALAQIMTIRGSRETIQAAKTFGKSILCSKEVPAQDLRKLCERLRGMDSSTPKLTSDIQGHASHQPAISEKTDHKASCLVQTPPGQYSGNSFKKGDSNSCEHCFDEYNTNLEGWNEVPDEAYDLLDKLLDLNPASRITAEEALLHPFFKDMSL", "assay_type": "functional"}},
  "note": "Calls of active or inactive are those of the source.",
  "data": [
    {"smiles": "Cn1c(=O)c([N+](=O)[O-])c(-n2cnc3ccccc32)c2ccccc21", "values": [
      {"measurement": "IC50", "setting": "[1]", "result": "72.3 µM (active)"},
      {"measurement": "EC50", "setting": "[2]", "result": "7.26 µM (active)"},
      {"measurement": "AC50", "setting": "[3]", "result": "69.6 µM (active)"},
      {"measurement": "AC50", "setting": "[4]", "result": "8.12 µM (active)"},
      {"measurement": "IC50", "setting": "[5]", "result": "> 100 µM (inactive)"}
    ]},
    {"smiles": "Cc1ccc2nc(N3CCN(Cc4nnnn4C4CCCC4)CC3)c(C#N)cc2c1", "values": [
      {"measurement": "AC50", "setting": "[6]", "result": "4.05 µM (active)"}
    ]},
    {"smiles": "Nc1nc2sc3c(c2c2nnc(SCc4ccc(Cl)cc4)n12)CCCC3", "values": [
      {"measurement": "IC50", "setting": "[7]", "result": "> 99 µM (inactive)"},
      {"measurement": "IC50", "setting": "[8]", "result": "> 99 µM (inactive)"}
    ]},
    {"smiles": "O=C(c1noc2ccccc12)N(C1CCCCC1)C1CCCCC1", "values": [
      {"measurement": "EC50", "setting": "[9]", "result": "> 50 µM (inactive)"},
      {"measurement": "EC50", "setting": "[10]", "result": "> 50 µM (inactive)"}
    ]},
    {"smiles": "O=c1nc(-c2ccccc2)cc(-c2ccncc2)[nH]1", "values": [
      {"measurement": "Ki", "setting": "[11]", "result": "> 100 µM (inactive)"},
      {"measurement": "Ki", "setting": "[12]", "result": "0.158 µM (active)"}
    ]}
  ]
}
